Values quoted from earlier work as cited in patent US20080069870A1, “Controlled Release Compositions Comprising a Cephalosporin for the Treatment of a Bacterial Infection” (Elan Corporation Pic, priority 2005, published 2008).
Read-outs that look alike come from different tables or passages of the source.

What was measured:
[1] = oral administration, after meals vs before meals

CC/C=C(\C(=O)N[C@@H]1C(=O)N2C(C(=O)OCOC(=O)C(C)(C)C)=C(COC(N)=O)CS[C@H]12)c1csc(N)n1.Cl [CFPN-PI, 2,2-Dimethylpropanoyloxymethyl (6R, 7R)-7-[(Z)-2-(2-aminothiazol-4-yl)pent-2-enylamino]-3-carabmoyloxymethyl-8-oxo-5-thia-1-azabicyclo[4.2.0]oct-2-ene-2-carboxylate monohydrochoride monohydrate]
solubility (in N, N-dimethylformamide): freely soluble | solubility (in diethyl ether): practically insoluble | solubility (in ethanol): sparingly soluble | solubility (in methanol): freely soluble | solubility (in water): only slightly soluble | absorption [1]: better after meals than before meals
